Experimental data from patent US6051206A, “Radiolabeled somatostatin-derived peptides for imaging and therapeutic uses” (Diatide, Inc, priority 1996, dated 2000).
Like-named read-outs stand apart in the source and are kept apart here. Bridge positions count the residues as written; N and C are the ends. Square brackets hold non-standard residues; d marks the D form. Peptide text beside a SMILES is read from it. * marks the point of attachment. X10 = NCCCC[C@H](NC(=O)[C@@H](N)CCCCNC(=O)C*)C(=O)N[C@@H](CS)C(N)=O; X2 = N=C(N)NCCC[C@H](NC(=O)[C@H](CS)NC(=O)CNC(=O)CNC(=O)C*)C(N)=O; X1 = NCCCC[C@H](NC(=O)[C@H](CS)NC(=O)CNC(=O)CNC(=O)C*)C(N)=O; NMeF = CN[C@@H](Cc1ccccc1)C(=O)O; hCys = N[C@@H](CCS)C(=O)O; Acm = CC(=O)NC*

Assays:
[1] = target: T1, somatostatin receptor (Rattus norvegicus, UniProt P30680); experiment: Inhibition of binding of {125I-Tyr11}somatostatin-14 to AR42J rat pancreatic tumor cell membranes; settings: uncomplexed peptide, {125I-Tyr11}somatostatin-14 0.5 nM
T1 construct: endogenous in cells; host or cells: AR42J rat pancreatic tumor cell line (membrane preparation)
Procedure: The rat pancreatic tumor cell line AR42J which expresses the somatostatin receptor was cultured in Dulbecco's minimal essential media (DMEM) supplemented with 10% fetal bovine serum (FBS) and 8 mM glutamine in a humdified 5% CO2 atmosphere at 37° C. in T-flasks. Harvested cells were homogenized in cold 50 mM Tris-HCl buffer (pH 7.4) and the homogenate then centrifuged at 39,000 g for 10 min at 4° C. Pellets were washed once with buffer and then resuspended in an ice-cold solution of 10 mM Tris-HCl (pH 7.4). Equal aliquots of this cell membrane preparation were incubated with {^125 I-Tyr^11 }somatostatin-14 (at a final concentration of 0.5 nM and 750,000 cpm/mL, at a specific activity of 2000 Ci/mmol, Amersham, Arlington Heights, Ill.) and peptide or peptide-rheniumcomplex at a final concentration of from 10^-11 M to 10^-6 M in a solution of 50 mM HEPES (pH 7.4) containing 1 % bovine serum albumin (BSA), 5 mM MgCl2, Trasylol (200,000 International Units), bacitracin (0.02 mg/mL) and phenylmethylsulfonylfluoride (0.02 mg/mL) for 25min at 30° C. Using a filtration manifold, this mixture was filtered through a polyethyleneimine-washed GC/F filter (Whatman, Maidstone, England), and the residue remaining on the filter washed thrice with 5 mL cold HEPES buffer. The filter and a sample of the filter washings were then counted in a gamma counter. To assess non-specific binding, the assay was performed in the presence of unlabeled somatostatin-14 at 200 nM. Data analysis including Hill plots of the data provided inhibition constants (see Bylund & Yamamura, "Methods of receptor binding", in Methods in Neurotransmitter Receptor Analysis, Yamamura et al., eds., Raven Press: New York, 1990).

[2] = test system: Somatostatin Receptor (SSTR)-expressing CA20948 rat pancreatic tumors; settings: in vivo, iv
Procedure: (§1) CA20948 rat pancreatic tumor cells, thawed from frozen harvested tumor brei, were implanted intramuscularly in a suspension of 0.05 to 0.1 mL/animal, into the right hind thigh of 6 week old Lewis rats. The tumors were allowed to grow to approximately 0.5 to 2 g, harvested, and tumor brei was used to implant a second, naive set of Lewis rats. Passaging in this fashion was repeated to generate successive generations of tumor-bearing animals. The tumor-bearing animals used for the in vivo studies were usually from the third to fifth passage and carried 0.2 to 2 g tumors.
(§2) For studies of the specificity of radiotracer localization in the tumors, selected animals were given an subcutaneous SSTR-blocking dose (4 mg/kg) of octreotide 30 minutes prior to injection of the radiotracer.
(§3) Third- to fifth-passage CA20948 tumor-bearing Lewis rats were restrained and injected intravenously via the dorsal tail vein with a dose of 0.15-0.20 mCi ^99m Tc-labeled peptide corresponding to 3 to 8 μg peptide in 0.2 to 0.4 mL.
(§4) At selected times, the animals were sacrificed by cervical dislocation and selected necropsy was performed. Harvested tissue samples were weighed and counted along with an aliquot of the injected dose in a gamma well-counter.

[3] = test system: Somatostatin Receptor (SSTR)-expressing CA20948 rat pancreatic tumors; experiment: Localization and in vivo biodistribution/imaging of Tc-99m labeled peptides in CA20948 tumor-bearing Lewis rats; settings: 90-minute biodistribution; for T/B (tumor/blood ratio) / T/M / % ID/g Tumor: 99mTc-labeled peptide, i.v.; for % ID/g Tumor: CA20948 tumor-bearing Lewis rats
Procedure: as §1, §2, §3, §4

[4] = test system: SSTR-expressing tumors; experiment: Clinical trial: scintigraphic imaging of human patients bearing SSTR-expressing tumors with Tc-99m labeled P587; format: in vivo; settings: i.v., within 30 minutes of injection
Text: In a clinical trial, scintigraphic imaging of human patients bearing SSTR-expressing tumors was achieved using the Tc-99m labeled P587 reagent.
A total of 10 patients, four females and six males ranging in age from 27 to 69 years, had been previously diagnosed with growth hormone-secreting pituitary adenoma (4 patients), melanoma (1 subject), medullary thyroid cancer (1 subject), small cell lung carcinoma (SCLC; 1 patient), non-Hodgkin's lymphoma (1 patient) or gastric carcinoid (1 patient). Each of these patients were administered Tc-99m labeled P587 at a dose of 10-22 mCi per 0.2-0.5 mg by intravenous injection. Scintigraphic imaging was them performed as described herein on each patient for 4 hours post-injection.
Gamma camera imaging is started simultaneously with injection. Anterior images were acquired as a dynamic study (10 sec image acquisitions) over the first 10 min, and then as static images at 1, 2, 3 and 4 h post-injection. Anterior images were acquired for 500,000 counts or 20 min (whichever is shorter), at approximately 10-20 min, and at approximately 1, 2, 3 and 4 h post-injection.

T1 sequence (P30680 whole entry): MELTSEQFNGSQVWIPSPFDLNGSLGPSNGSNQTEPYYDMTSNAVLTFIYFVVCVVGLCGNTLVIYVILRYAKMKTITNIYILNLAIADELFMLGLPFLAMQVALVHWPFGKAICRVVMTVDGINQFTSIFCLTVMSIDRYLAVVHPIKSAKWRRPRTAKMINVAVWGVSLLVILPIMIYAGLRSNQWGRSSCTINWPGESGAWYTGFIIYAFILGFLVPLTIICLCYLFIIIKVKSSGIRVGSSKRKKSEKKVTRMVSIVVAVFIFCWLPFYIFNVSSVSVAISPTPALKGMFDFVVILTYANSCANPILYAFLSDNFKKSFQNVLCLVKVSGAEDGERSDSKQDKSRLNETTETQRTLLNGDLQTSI

| Compound | Ki [1] | T/B (tumor/blood ratio) [2] | T/M [2] | other results |
| --- | --- | --- | --- | --- |
| CC(=O)NCSC[C@H](NC(=O)CNC(=O)[C@H](CSCNC(C)=O)NC(=O)[C@@H]1CSCC(=O)N[C@@H](Cc2ccccc2)C(=O)N[C@@H](Cc2ccccc2)C(=O)N[C@H](Cc2c[nH]c3ccccc23)C(=O)N[C@@H](CCCCN)C(=O)N[C@@H]([C@@H](C)O)C(=O)N[C@@H](Cc2ccccc2)C(=O)N1)C(N)=O [CH2 CO.FFWD KTFCCAcm GCAcm.amide] ({CH2CO}-FF[dW]KTFCC(Acm)GC(Acm)-NH2; thioether N-7) | 7.5 nM | – | – | – |
| C[C@@H](O)[C@@H]1NC(=O)[C@H](CCCCN)NC(=O)[C@@H](Cc2c[nH]c3ccccc23)NC(=O)[C@H](Cc2ccccc2)NC(=O)[C@H](Cc2ccccc2)NC(=O)CSC[C@@H](C(=O)NCC(=O)NCC(=O)N[C@@H](CS)C(N)=O)NC(=O)[C@H](Cc2ccccc2)NC1=O [CH2 CO.FFWD KTFCGGC.amide] ({CH2CO}-FF[dW]KTFCGGC-NH2; thioether N-7) | 9.4 nM | – | – | – |
| cyclo.(N--CH3)FYWD KV.Hcy(CH2 CO.(β-Dap)KCK.amide) [Peptide P829] | – | 13 | 49 | – |
| cyclo.(N--CH3)FYWD KV.Hcy(CH2 CO.(β-Dap)KCR.amide) [Peptide P832] | – | 13 | 37 | – |
| CC(C)[C@@H]1NC(=O)[C@H](CCCCN)NC(=O)[C@@H](Cc2c[nH]c3ccccc23)NC(=O)[C@H](Cc2ccc(O)cc2)NC(=O)[C@H](Cc2ccccc2)N(C)C(=O)[C@H](CCSCC(=O)NCCCC[C@H](N)C(=O)N[C@@H](CCCCN)C(=O)N[C@@H](CS)C(N)=O)NC1=O [cyclo.(N-Me)FYWD KV.Hcy(CH2 CO.(ε-K)KC.amide)] (cyclo([NMeF]Y[dW]KV[hCys](X10))) | 2.2 nM | – | – | – |
| CC(C)[C@@H]1NC(=O)[C@H](CCCCN)NC(=O)[C@@H](Cc2c[nH]c3ccccc23)NC(=O)[C@H](Cc2ccc(O)cc2)NC(=O)[C@H](Cc2ccccc2)N(C)C(=O)[C@H](CCSCC(=O)NCC(=O)NCC(=O)N[C@@H](CS)C(=O)N[C@@H](CCCNC(=N)N)C(N)=O)NC1=O (99mTc complex, metal not drawn) [Peptide P617, cyclo(N-methyl)FYWD KV.Hcy.(CH2 CO.GGCR.amide)] (cyclo([NMeF]Y[dW]KV[hCys](X2))) | – | – | – | tumor uptake and tumor/blood ratios (in words) [3]: very high; T/B (tumor/blood ratio) [3]: 9.4; T/M [3]: 36; % ID/g Tumor [3]: 6.7 % ID/g |
| CC(C)[C@@H]1NC(=O)[C@H](CCCCN)NC(=O)[C@@H](Cc2c[nH]c3ccccc23)NC(=O)[C@H](Cc2ccc(O)cc2)NC(=O)[C@H](Cc2ccccc2)N(C)C(=O)[C@H](CCSCC(=O)NCC(=O)NCC(=O)N[C@@H](CS)C(=O)N[C@@H](CCCCN)C(N)=O)NC1=O (99mTc complex, metal not drawn) [Peptide P587, cyclo(N-methyl)FYWD KV.Hcy.(CH2 CO.GGCK.amide)] (cyclo([NMeF]Y[dW]KV[hCys](X1))) | – | – | – | injected dose remaining in the circulation [4]: less than 10%; tumor uptake and tumor/blood ratios (in words) [3]: very high; T/B (tumor/blood ratio) [3]: 6.0; T/M [3]: 33; % ID/g Tumor [3]: 3.4 % ID/g |
| cyclo.(N-Me)FYWD KV.Hcy(CH2 CO.(ε-K)KC.amide) [Peptide P625] | – | 0.85 | 4.6 | – |
| KKKK.NalD.Cpa.YWD KTFT(ε-K)GCDDDD.amide [Peptide P550] | – | 0.91 | 7.4 | – |
